Results as given in US20240082416A1, “AMATOXIN ANALOGS AND USES THEREOF” (THE UNIVERSITY OF BRITISH COLUMBIA, priority 2020, published 2024).
Starred links: 1 amine or outer side, 2 acyl side, 3 side chain; linkers in the order of their positions; H or OH if unused. Positions of bridges follow the written chain, without caps; N, C: chain ends. Non-standard residues stand in square brackets, D forms with d. Residues, ends and D or L forms follow the SMILES beside them. Trp(2-yl) = O=C([C@H](Cc1c([*:3])[nH]c2ccccc12)N[*:1])[*:2]; Pro(trans-4-guanidino) = N=C(N)N[C@H]1CN[C@H](C(=O)O)C1; Pro(4R-SH) = O=C([C@@H]1C[C@@H](S[*:3])CN1[*:1])[*:2]; Ile(4R-OH,5-OH) = C[C@H]([C@H](N)C(=O)O)[C@@H](O)CO; X1 = N#C[C@@H]1C[C@@H](C(=O)[*:2])N([*:1])C1; Pro(4R-NH2) = N[C@H]1CN[C@H](C(=O)O)C1

assay: Cell viability assay (BrdU incorporation) on HEK293-OATP1B3 cells; format: cell-based, human; settings: human, HEK293 cells overexpressing OATP1B3 (HEK293-OATP1B3); highest used concentration of 1 μM; HEK293-OATP1B3 cells
Procedure: . HEK293 and HEK-OATP1B3 cells were plated at 2.5×10^3 cells/well in a 1:1 mixture of Ham's F12 with DMEM containing 10% charcoal-stripped fetal calf serum (FCS) onto poly-D-lysine-coated 96-well plates and grown for 24 hours. Subsequently, cells were incubated with amanitin analogs at 8 different concentrations (1×10^−6 M to 1.28×10^−11 M, serial 1:5 dilutions). Following 96 h of drug exposure, cell viability was determined by a BrdU incorporation assay (Cell Proliferation ELISA, BrdU, Roche) and chemiluminescence was measured using a FLUOstar Optima plate reader (BMG LABtech). Data analysis was performed with GraphPad Prism 8 (GraphPad Software, Inc., La Jolla, CA) software to plot curve fits.

Compound | viability at 96 h, 1 µM
CC[C@H](C)[C@@H]1NC(=O)CNC(=O)[C@@H]2Cc3c([nH]c4ccccc34)SC[C@H](NC(=O)CNC1=O)C(=O)N[C@@H](CC(N)=O)C(=O)N1C[C@H](S)C[C@H]1C(=O)N[C@@H]([C@@H](C)[C@@H](O)CO)C(=O)N2 [Compound 5, SH-Pro-amanitin] (cyclo(CN[Pro(4R-SH)][Ile(4R-OH,5-OH)][Trp(2-yl)]GIG); thioether 1-5) | 50%
CC[C@H](C)[C@@H]1NC(=O)CNC(=O)[C@@H]2Cc3c([nH]c4ccccc34)SC[C@H](NC(=O)CNC1=O)C(=O)N[C@@H](CC(N)=O)C(=O)N1C[C@H](N)C[C@H]1C(=O)N[C@@H]([C@@H](C)[C@@H](O)CO)C(=O)N2 [Compound 6, NH2-Pro-amanitin] (cyclo(CN[Pro(4R-NH2)][Ile(4R-OH,5-OH)][Trp(2-yl)]GIG); thioether 1-5) | 33%
CC[C@H](C)[C@@H]1NC(=O)CNC(=O)[C@@H]2Cc3c([nH]c4ccccc34)SC[C@H](NC(=O)CNC1=O)C(=O)N[C@@H](CC(N)=O)C(=O)N1C[C@H](C#N)C[C@H]1C(=O)N[C@@H]([C@@H](C)[C@@H](O)CO)C(=O)N2 [Compound 4, CN-Pro-amanitin] (cyclo(CN[X1][Ile(4R-OH,5-OH)][Trp(2-yl)]GIG); thioether 1-5) | 43%
CC[C@H](C)[C@@H]1NC(=O)CNC(=O)[C@@H]2Cc3c([nH]c4ccccc34)SC[C@H](NC(=O)CNC1=O)C(=O)N[C@@H](CC(N)=O)C(=O)N1C[C@H](NC(=N)N)C[C@H]1C(=O)N[C@@H]([C@@H](C)[C@@H](O)CO)C(=O)N2 [Compound 7, Gdn-Pro-amanitin] (cyclo(CN[Pro(trans-4-guanidino)][Ile(4R-OH,5-OH)][Trp(2-yl)]GIG); thioether 1-5) | 86%
